Peptide text beside a SMILES is read from it.
Test: Inhibitory activity against Bacterial Tyrosyl tRNA Synthetase

CCOC(=O)[C@H](NC(=O)[C@@H](N)Cc1ccc(O)cc1)[C@@H]1CC[C@H](O)[C@H](O)[C@H]1O [(R)-[(S)-2-Amino-3-(4-hydroxy-phenyl)-propionylamino]-((1S,2S,3S,4S)-2,3,4-trihydroxy-cyclohexyl)-acetic acid ethyl ester]
IC50: > 3000 nM

CCOC(=O)[C@@H](NC(=O)[C@@H](N)Cc1ccc(O)cc1)[C@@H]1C=C[C@H](O)[C@H](O)[C@H]1O [(S)-[(S)-2-Amino-3-(4-hydroxy-phenyl)-propionylamino]-((1S,4S,5S,6S)-4,5,6-trihydroxy-cyclohex-2-enyl)-acetic acid ethyl ester]
IC50: 3.4 nM

COC(=O)[C@@H](NC(=O)[C@@H](N)Cc1ccc(O)cc1)C1CCCCC1 [(S)-[(S)-2-Amino-3-(4-hydroxy-phenyl)-propionylamino]-cyclohexyl-acetic acid methyl ester] (HELM PEPTIDE1{Y.[O=C([C@@H](N[*:1])C1CCCCC1)[*:2]].[CO[*:1]]}$$$$V2.0)
IC50: > 3000 nM

CCOC(=O)[C@H](NC(=O)[C@@H](N)Cc1ccc(O)cc1)[C@@H]1C=C[C@H](O)[C@H](O)[C@H]1O [(R)-[(S)-2-Amino-3-(4-hydroxy-phenyl)-propionylamino]-((1S,4S,5S,6S)-4,5,6-trihydroxy-cyclohex-2-enyl)-acetic acid ethyl ester]
IC50: 124 nM

CCOC(=O)[C@@H](NC(=O)[C@@H](N)Cc1ccc(O)cc1)[C@@H]1CC[C@H](O)[C@H](O)[C@H]1O [(S)-[(S)-2-Amino-3-(4-hydroxy-phenyl)-propionylamino]-((1S,2S,3S,4S)-2,3,4-trihydroxy-cyclohexyl)-acetic acid ethyl ester]
IC50: 245 nM
